Measurements: patent US20240082406A1, “BENZOHETEROCYCLE SUBSTITUTED TETRAHYDROISOQUINOLINE COMPOUND” (SHANGHAI JEMINCARE PHARMACEUTICAL CO., LTD, priority 2020, published 2024)
Counter-ions that a name gives are not always drawn.

Assays:
NHE3 [1] = molecular target: T1, NHE3 (UniProt P48764); test: Cell-based NHE3 activity under persistent conditions (60 min pre-incubation, compound removed); parameters: species or system Rat or Human; conditions: opossum kidney cells expressing NHE3, read-out: Cell-based NHE3 inhibition IC50 (uM) under persistent conditions
T1 sequence (P48764 1-834): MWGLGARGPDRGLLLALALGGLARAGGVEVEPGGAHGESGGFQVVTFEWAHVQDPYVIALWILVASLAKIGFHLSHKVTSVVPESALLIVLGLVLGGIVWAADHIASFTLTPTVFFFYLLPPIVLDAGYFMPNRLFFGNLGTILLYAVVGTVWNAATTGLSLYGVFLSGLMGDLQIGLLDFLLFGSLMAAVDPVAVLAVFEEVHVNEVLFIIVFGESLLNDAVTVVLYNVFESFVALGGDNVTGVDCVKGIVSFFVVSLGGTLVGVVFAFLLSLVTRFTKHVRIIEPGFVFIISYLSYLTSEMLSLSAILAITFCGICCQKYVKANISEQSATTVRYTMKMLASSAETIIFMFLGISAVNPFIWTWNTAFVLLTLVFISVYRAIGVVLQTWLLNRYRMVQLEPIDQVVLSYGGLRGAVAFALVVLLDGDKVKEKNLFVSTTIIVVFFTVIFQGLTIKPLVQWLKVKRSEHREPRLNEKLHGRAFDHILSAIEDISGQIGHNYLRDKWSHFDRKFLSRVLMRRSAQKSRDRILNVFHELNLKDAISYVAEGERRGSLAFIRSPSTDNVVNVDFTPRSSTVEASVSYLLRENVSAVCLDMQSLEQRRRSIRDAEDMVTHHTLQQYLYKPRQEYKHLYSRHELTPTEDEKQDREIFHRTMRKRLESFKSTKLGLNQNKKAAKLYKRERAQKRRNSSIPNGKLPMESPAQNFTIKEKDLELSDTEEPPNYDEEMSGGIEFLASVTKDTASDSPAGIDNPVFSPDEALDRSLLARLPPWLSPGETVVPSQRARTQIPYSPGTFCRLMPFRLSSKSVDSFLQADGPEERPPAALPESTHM
From the text: (§1) Opossum kidney (OK) cells were obtained from ATCC and cultured and expanded according to its instructions. OK monoclonal stable cell lines expressing the Rat NHE3 (Gene Bank registration number: M85300) protein and OK monoclonal stable cell lines expressing the Human NHE3 (Gene Bank registration number: NM_004174.1) protein were constructed by lentivirus infection.
The general procedure of the cell-based NHE3 activity assay under persistent conditions (persistent inhibition) was: Rat NHE3 OK monoclonal cells or Human NHE3 OK monoclonal cells were inoculated into 384-well plates and grew overnight. The medium was aspirated from the wells and the cells were washed twice with FLIPR buffer (Hank's BSS 1×, 20 mM HEPES, 1% BSA) followed by the addition of Na-HEPES buffer containing […] test compound (100 mM NaCl, 50 mM HEPES, 10 mM glucose, 5 mM KCl, 2 mM CaCl2, 1 mM MgCl2, pH 7.4) and incubated for 60 minutes at room temperature. The compounds were aspirated from the wells and incubated with FLIPR buffer (Hank's BSS 1×, 20 mM HEPES, 1% BSA) containing […] BCECF-AM (Invitrogen) for 45 minutes at room temperature. Subsequently, […] of 200 mM NH4Cl-HEPES buffer (Hank's BSS 1×, 20 mM HEPES, 200 mM NH4Cl) was added and incubated for 15-20 minutes at room temperature. The cells were washed twice with 20 mM NH4Cl-HEPES buffer (Hank's BSS 1×, 20 mM HEPES, 20 mM […]). […] Ratio=fluorescence value (λex 490 nm)/fluorescence value (λex 440 nm) was set, the average value of the Ratio difference between the end time and the start time between the duplicate wells was calculated, the average value and the concentration value of the compound were drawn, and the dose-response-inhibition (four parameters) equation was used to estimate EC50 value by GraphpadPrism.

NHE3 [2] = molecular target: T1, NHE3; test: Cell-based NHE3 activity under transient conditions (BCECF-AM intracellular pH, FLIPR); parameters: species or system Rat or Human; conditions: opossum kidney cells expressing NHE3, read-out: Cell-based NHE3 inhibition IC50 (uM) under transient conditions
From the text: as §1
The general procedure of the cell-based NHE3 activity experiments under transient conditions (transient inhibition) was based on an adaptation method of the pH-sensitive dye method originally reported by Tisen (Proc. Natl. Acad. Sci. USA) (1984) 81(23):7436-7440) to measure rat NHE3-mediated Na+-dependent reverse H+ transport, and was optimized according to the instructions “Measuring Intracellular pH With the FLIPR and FLIPR 384 Fluorometric Imaging Plate Reader Systems” published by Molecular Devices. The specific method was: Rat NHE3 OK monoclonal cells or Human NHE3 OK monoclonal cells were inoculated into 384-well plates and grew overnight. The medium was aspirated from the wells and the cells were washed twice with FLIPR buffer (Hank's BSS 1×, 20 mM HEPES, 1% BSA) followed by incubation with FLIPR buffer (Hank's BSS 1×, 20 mM HEPES, 1% BSA) containing […] BCECF-AM (Invitrogen) for 45 min at room temperature. Subsequently, […] of 200 mM NH4Cl-HEPES buffer (Hank's BSS 1×, 20 mM HEPES, 200 mM NH4Cl) was added and the cells were incubated for 15-20 minutes at room temperature. Cells were washed twice with 20 mM NH4Cl-HEPES buffer (Hank's BSS 1×, 20 mM HEPES, 20 mM NH4Cl). NHE3-mediated pH sensitization in cells was normalized by addition of containing 0.4 mM amiloride (EIPA) and […] test compound or Na-HEPES buffer (100 mM NaCl, 50 mM HEPES, 10 mM glucose, 5 mM KCl, 2 mM CaCl2), 1 mM MgCl2, pH 7.4) and monitoring of BCECF-AM fluorescence at λem 535 nm excitated by λex 440 nm and λex 490 nm respectively. Ratio=fluorescence value (λex 490 nm)/fluorescence value (λex 440 nm) was set, the average value of the Ratio difference between the end time and the start time between the duplicate wells was calculated, the average value and the concentration value of the compound were drawn, and Graphpad Prism software was used to estimate IC50 value.

Row | Compound | IC50 (NHE3 [1]) [µM] | IC50 (NHE3 [2]; embodiment compounds) [µM] | IC50 (NHE3 [2]; intermediates) [µM]
1 | CN1Cc2c(Cl)cc(Cl)cc2C(c2ccc3cn[nH]c3c2)C1 (stereo not shown) [Intermediate D1-7] | – | – | 1.44
2 | CN1Cc2c(Cl)cc(Cl)cc2C(c2ccc3c(c2)C(=O)NC3)C1 (stereo not shown) [Intermediate B1-6] | – | – | 0.53
3 | CN1Cc2c(Cl)cc(Cl)cc2[C@H](c2cccc(S(=O)(=O)NCCOCCOCCNC(=O)NCCCCNC(=O)NCCOCCOCCNS(=O)(=O)c3cccc([C@@H]4CN(C)Cc5c(Cl)cc(Cl)cc54)c3)c2)C1 [Tenapanor, reference compound] | 0.56 | 0.74 | –
4 | CN1Cc2c(Cl)cc(Cl)cc2C(c2cccc3c2CNS3(=O)=O)C1 (stereo not shown) [Intermediate A2-13] | – | – | 1.63
5 | CN1Cc2c(Cl)cc(Cl)cc2C(c2ccc3cn(CCOCCOCCNC(=O)NCCCCNC(=O)NCCOCCOCCn4cc5ccc(C6CN(C)Cc7c(Cl)cc(Cl)cc76)cc5n4)nc3c2)C1 (stereo not shown) [Embodiment D1-P1] | 0.02 | 0.28 | –
6 | CN1Cc2c(Cl)cc(Cl)cc2C(c2ccc3c(c2)S(=O)(=O)NCC3)C1 (stereo not shown) [Intermediate C1-11] | – | – | 1.24
7 | CN1Cc2c(Cl)cc(Cl)cc2C(c2ccc3c(c2)S(=O)(=O)NC=C3)C1 (stereo not shown) [Intermediate E1-9] | – | – | 3.17
8 | CN1Cc2c(Cl)cc(Cl)cc2C(c2ccc3c(c2)S(=O)(=O)NC3)C1 (stereo not shown) [Intermediate A1-13] | – | – | 0.6
9 | CN1Cc2c(Cl)cc(Cl)cc2C(c2ccc3c(c2)CNC3=O)C1 (stereo not shown) [Intermediate B4-6] | – | – | 0.79
10 | CN1Cc2c(Cl)cc(Cl)cc2C(c2ccc3cnn(CCOCCOCCOCCNC(=O)NCCCCNC(=O)NCCOCCOCCOCCn4ncc5ccc(C6CN(C)Cc7c(Cl)cc(Cl)cc76)cc54)c3c2)C1 (stereo not shown) [Embodiment D2-P2 hydrochloride salt] | 0.12 | 0.27 | –
11 | CN1Cc2c(Cl)cc(Cl)cc2C(c2ccc3cc[nH]c(=O)c3c2)C1 (stereo not shown) [Intermediate B5-6] | – | – | 1.69
12 | CN1Cc2c(Cl)cc(Cl)cc2C(c2cccc3c2CNC3=O)C1 (stereo not shown) [Intermediate B2-6] | – | – | 0.17

Further lines, results first:

Row | IC50 (NHE3 [1]) [µM] | IC50 (NHE3 [2]; embodiment compounds) [µM] | IC50 (NHE3 [2]; intermediates) [µM] | Compound
13 | 0.5 | 0.43 | – | CN1Cc2c(Cl)cc(Cl)cc2C(c2ccc3c(c2)S(=O)(=O)N(CCOCCOCCNC(=O)NCCCCNC(=O)NCCOCCOCCN2Cc4ccc(C5CN(C)Cc6c(Cl)cc(Cl)cc65)cc4S2(=O)=O)C3)C1 (stereo not shown) [Embodiment A1]
14 | 0.05 | 0.32 | – | CN1Cc2c(Cl)cc(Cl)cc2C(c2ccc3c(c2)C(=O)N(CCOCCOCCOCCNC(=O)[C@H](O)[C@@H](O)C(=O)NCCOCCOCCOCCN2Cc4ccc(C5CN(C)Cc6c(Cl)cc(Cl)cc65)cc4C2=O)C3)C1 (stereo partly shown) [Embodiment J2]
15 | – | 3.14 | – | CN1Cc2c(Cl)cc(Cl)cc2C(c2cccc3c2CN(CCOCCOCCNC(=O)NCCCCNC(=O)NCCOCCOCCN2Cc4c(C5CN(C)Cc6c(Cl)cc(Cl)cc65)cccc4S2(=O)=O)S3(=O)=O)C1 (stereo not shown) [Embodiment A2]
16 | 0.06 | 0.48 | – | CN1Cc2c(Cl)cc(Cl)cc2C(c2ccc3c(c2)C(=O)N(CCOCCOCCNC(=O)Nc2ccc(NC(=O)NCCOCCOCCN4Cc5ccc(C6CN(C)Cc7c(Cl)cc(Cl)cc76)cc5C4=O)cc2)C3)C1 (stereo not shown) [Embodiment H2]
17 | – | 2.05 | – | CN1Cc2c(Cl)cc(Cl)cc2C(c2cccc3c2CN(CCOCCOCCNC(=O)NCCCCNC(=O)NCCOCCOCCN2Cc4c(cccc4C4CN(C)Cc5c(Cl)cc(Cl)cc54)C2=O)C3=O)C1 (stereo not shown) [Embodiment B2]
18 | 0.05 | 0.25 | – | CN1Cc2c(Cl)cc(Cl)cc2C(c2ccc3c(c2)C(=O)N(CCOCCOCCNC(=O)[C@H](O)[C@H](O)[C@@H](O)[C@@H](O)C(=O)NCCOCCOCCN2Cc4ccc(C5CN(C)Cc6c(Cl)cc(Cl)cc65)cc4C2=O)C3)C1 (stereo partly shown) [Embodiment J4]
19 | 0.13 | 0.19 | – | CN1Cc2c(Cl)cc(Cl)cc2C(c2ccc3c(c2)C(=O)N(CCOCCOCCOCCNC(=O)CCC(N)(CCC(=O)NCCOCCOCCOCCN2Cc4ccc(C5CN(C)Cc6c(Cl)cc(Cl)cc65)cc4C2=O)CCC(=O)NCCOCCOCCOCCN2Cc4ccc(C5CN(C)Cc6c(Cl)cc(Cl)cc65)cc4C2=O)C3)C1 (stereo not shown) [Embodiment I3]
20 | 0.05 | 0.06 | – | CN1Cc2c(Cl)cc(Cl)cc2C(c2ccc3c(c2)S(=O)(=O)N(CCOCCOCCNC(=O)NCCCCNC(=O)NCCOCCOCCN2C=Cc4ccc(C5CN(C)Cc6c(Cl)cc(Cl)cc65)cc4S2(=O)=O)C=C3)C1 (stereo not shown) [Embodiment E1]
21 | 0.04 | 0.91 | – | CN1Cc2c(Cl)cc(Cl)cc2C(c2ccc3c(c2)C(=O)N(CCOCCOCCNC(=O)NC2CCC(NC(=O)NCCOCCOCCN4Cc5ccc(C6CN(C)Cc7c(Cl)cc(Cl)cc76)cc5C4=O)CC2)C3)C1 (stereo not shown) [Embodiment H1]
22 | 0.45 | 0.93 | – | CN1Cc2c(Cl)cc(Cl)cc2C(c2ccc3c(c2)CN(CCOCCOCCNC(=O)NCCCCNC(=O)NCCOCCOCCN2Cc4cc(C5CN(C)Cc6c(Cl)cc(Cl)cc65)ccc4C2=O)C3=O)C1 (stereo not shown) [Embodiment B4]
23 | 0.04 | 1.05 | – | CN1Cc2c(Cl)cc(Cl)cc2C(c2ccc3c(c2)C(=O)N(CCOCCOCCOCCNC(=O)NCCCCNC(=O)NCCOCCOCCCN2Cc4ccc(C5CCCc6ccc(Cl)cc65)cc4C2=O)C3)C1 (stereo not shown) [Embodiment B6]
24 | 0.57 | 0.23 | – | CN1Cc2c(Cl)cc(Cl)cc2C(c2ccc3ccn(CCOCCOCCNC(=O)NCCCCNC(=O)NCCOCCOCCn4ccc5ccc(C6CN(C)Cc7c(Cl)cc(Cl)cc76)cc5c4=O)c(=O)c3c2)C1 (stereo not shown) [Embodiment B5]
25 | 0.03 | 0.43 | – | CN1Cc2c(Cl)cc(Cl)cc2C(c2ccc3c(c2)C(=O)N(CCOCCOCCOCCNC(=O)COCC(=O)NCCOCCOCCOCCN2Cc4ccc(C5CN(C)Cc6c(Cl)cc(Cl)cc65)cc4C2=O)C3)C1 (stereo not shown) [Embodiment J1]
26 | 0.1 | 0.93 | – | CN1Cc2c(Cl)cc(Cl)cc2C(c2ccc3c(c2)C(=O)N(CCOCCOCCNC(=O)O[C@@H]2COC4C2OC[C@H]4OC(=O)NCCOCCOCCN2Cc4ccc(C5CN(C)Cc6c(Cl)cc(Cl)cc65)cc4C2=O)C3)C1 (stereo partly shown) [Embodiment G1]
27 | 0.08 | 0.62 | – | CN1Cc2c(Cl)cc(Cl)cc2C(c2ccc3c(c2)C(=O)N(CCOCCOCCOCCNC(=O)CN(CCN(CC(=O)O)CC(=O)NCCOCCOCCOCCN2Cc4ccc(C5CN(C)Cc6c(Cl)cc(Cl)cc65)cc4C2=O)CC(=O)O)C3)C1 (stereo not shown) [Embodiment F2]
